Data: US20060069132A1, “Azolecarboxamide herbicides” (priority 2004, published 2006)

Experiments:
[1] = test system: barnyardgrass; assay: Test B pre-/postemergence herbicide test; type: in vivo, Echinochloa crus-galli
Procedure, shortened: (§1)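 Response was scored visually 13 to 15 days after treatment against untreated greenhouse controls, 0 meaning no effect and 100 complete control. Formulations (solvent mixture plus surfactant) went onto soil after planting, onto foliage of 1- to 4-leaf plants, and onto 2-leaf plants in a flooded paddy set including rice and barnyardgrass.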

[2] = test system: Surinam grass; assay: Test B pre-/postemergence herbicide test; type: in vivo, Urochloa decumbens
Procedure, shortened: (§2)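 Greenhouse pot assay with simultaneous preemergence (treated seed) and postemergence (2–18 cm seedlings) applications of surfactant-containing, non-phytotoxic solvent formulations. Response scored visually 13–15 days later on a 0–100 scale, 100 meaning complete control.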

[3] = test system: cocklebur; assay: Test B pre-/postemergence herbicide test; type: in vivo, Xanthium strumarium
Procedure, shortened: as §1

[4] = test system: corn; assay: Test B pre-/postemergence herbicide test; type: in vivo, Zea mays
Procedure, shortened: as §2

[5] = test system: large crabgrass; assay: Test B pre-/postemergence herbicide test; type: in vivo, Digitaria sanguinalis
Procedure, shortened: as §2

[6] = test system: giant foxtail; assay: Test B pre-/postemergence herbicide test; type: in vivo, Setaria faberi
Procedure, shortened: as §2

[7] = test system: morningglory; assay: Test B pre-/postemergence herbicide test; type: in vivo, Ipomoea coccinea
Procedure, shortened: as §1

[8] = test system: pigweed; assay: Test B pre-/postemergence herbicide test; type: in vivo, Amaranthus retroflexus
Procedure, shortened: as §2

[9] = test system: velvetleaf; assay: Test B pre-/postemergence herbicide test; type: in vivo, Abutilon theophrasti
Procedure, shortened: as §2

[10] = test system: blackgrass; assay: Test B postemergence herbicide test; type: in vivo, Alopecurus myosuroides
Procedure, shortened: (§3)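 Visual control ratings, 0–100 versus untreated controls, taken after 13 to 15 days in the greenhouse. Blackgrass received a postemergence spray at the 1- to 4-leaf stage (2–18 cm); ducksalad, umbrella sedge and barnyardgrass were flooded-paddy treated at 2 leaves.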

[11] = test system: wheat; assay: Test B postemergence herbicide test; type: in vivo, Triticum aestivum; design: key to Wheat plant response rating: 0 = no effect, 100 = complete control
Procedure, shortened: (§4)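 After treating 2-leaf paddy plants or 2–18 cm postemergence plants (1 to 4 leaves) with formulated chemical, researchers kept them in a greenhouse for 13–15 days. Effects were judged visually versus controls: 0 indicates none, 100 total control.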

[12] = test system: wild oat; assay: Test B postemergence herbicide test; type: in vivo, Avena fatua
Procedure, shortened: as §4

[13] = test system: rice; assay: Test B flooded paddy test; type: in vivo, Oryza sativa; conditions: 1000 g ai/ha, scale 0 to 100 (0 no effect, 100 complete control)
Procedure, shortened: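 Greenhouse test; postemergence application to plants at 1–4 leaves (2–18 cm); paddy species at 2 leaves; evaluated visually vs controls at 13–15 days; scale 0–100 (100 = complete control).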

[14] = test system: small flower umbrella sedge; assay: Test B flooded paddy test; type: in vivo, Cyperus difformis; conditions: 1000 g ai/ha, scale 0 to 100 (0 no effect, 100 complete control)
Procedure, shortened: as §3

[15] = test system: ducksalad; assay: Test B flooded paddy test; type: in vivo, Heteranthera limosa; conditions: 1000 g ai/ha, scale 0 to 100 (0 no effect, 100 complete control)
Procedure, shortened: as §3

[16] = test system: barnyardgrass; assay: Test B flooded paddy test; type: in vivo, Echinochloa crus-galli; conditions: 1000 g ai/ha, scale 0 to 100 (0 no effect, 100 complete control)
Procedure, shortened: as §3

[17] = 125 g ai/ha; 0 = no effect, 100 = complete control; preemergence
[18] = 500 g ai/ha; visual rating, 0 = no effect, 100 = complete control; preemergence
[19] = postemergence, 125 g ai/ha; visual rating, scale 0 (no effect) to 100 (complete control)
[20] = postemergence, 500 g ai/ha; scale 0 to 100, 0 is no effect, 100 is complete control
[21] = 125 g ai/ha; visual rating, scale 0 (no effect) to 100 (complete control); postemergence

C=CCN(C)C(=O)c1cccc(NC(=O)c2cc(C(C)(C)C)nn2CC)c1 [Compound 285]
70: Plant response rating, Surinam Grass [2, 18] | Plant response rating, Crabgrass, Large [5, 18] | Pigweed plant response rating [8, 19]
90: Plant response rating, Barnyardgrass [1, 18] | Sedge, Umbrella plant response rating [14] | Ducksalad plant response rating [15] | Barnyardgrass plant response rating [16]
30: Barnyardgrass plant response rating (0 to 100 scale) [1, 17] | Surinam Grass plant response rating [2, 20] | Cocklebur plant response rating [3, 20] | Foxtail, Giant plant response rating [6, 19] | Morningglory plant response rating [7, 20] | Velvetleaf plant response rating (0 to 100 scale) [9, 17] | Blackgrass plant response rating [10, 19] | Blackgrass plant response rating [10, 20] | Wheat plant response rating [11, 19]
10: Barnyardgrass plant response rating [1, 20] | Surinam Grass plant response rating (0 to 100 scale) [2, 17] | Surinam Grass plant response rating [2, 19] | Cocklebur plant response rating [3, 19] | Corn plant response rating [4, 19] | Corn plant response rating [4, 20] | Foxtail, Giant plant response rating (0 to 100 scale) [6, 17] | Plant response rating, Morningglory [7, 18] | Velvetleaf plant response rating [9, 19]
20: Crabgrass, Large plant response rating (0 to 100 scale) [5, 17] | Crabgrass, Large plant response rating [5, 20] | Morningglory plant response rating [7, 19]
100: Pigweed plant response rating (0 to 100 scale) [8, 17] | Plant response rating, Pigweed [8, 18] | Plant response rating, Velvetleaf [9, 18]
40: Plant response rating, Corn [4, 18] | Velvetleaf plant response rating [9, 20] | Wheat plant response rating [11, 20] | Oat, Wild plant response rating [12, 19]
80: Plant response rating, Foxtail, Giant [6, 18] | Pigweed plant response rating [8, 20] | Rice plant response rating [13]
0: Barnyardgrass plant response rating [1, 19] | Cocklebur plant response rating (0 to 100 scale) [3, 17] | Plant response rating, Cocklebur [3, 18] | Corn plant response rating (0 to 100 scale) [4, 17] | Crabgrass, Large plant response rating [5, 19] | Morningglory plant response rating (0 to 100 scale) [7, 17]
50: Foxtail, Giant plant response rating [6, 20] | Oat, Wild plant response rating [12, 20]

CCc1nn(C(C)(C)C)cc1C(=O)Nc1cc(C(=O)N(C)C)ccn1 [Compound 293]
100: Plant response rating, Barnyardgrass [1, 18] | Plant response rating, Surinam Grass [2, 18] | Plant response rating, Corn [4, 18] | Crabgrass, Large plant response rating (0 to 100 scale) [5, 17] | Plant response rating, Crabgrass, Large [5, 18] | Plant response rating, Foxtail, Giant [6, 18] | Plant response rating, Morningglory [7, 18] | Plant response rating, Pigweed [8, 18] | Plant response rating, Velvetleaf [9, 18]
10: Barnyardgrass plant response rating [1, 20] | Surinam Grass plant response rating [2, 21] | Corn plant response rating [4, 21] | Pigweed plant response rating (0 to 100 scale) [8, 17] | Pigweed plant response rating [8, 21] | Velvetleaf plant response rating [9, 21]
20: Surinam Grass plant response rating [2, 20] | Cocklebur plant response rating [3, 21] | Crabgrass, Large plant response rating [5, 20] | Foxtail, Giant plant response rating [6, 21] | Wheat plant response rating [11, 21]
60: Cocklebur plant response rating (0 to 100 scale) [3, 17] | Foxtail, Giant plant response rating (0 to 100 scale) [6, 17]
80: Sedge, Umbrella plant response rating [14] | Ducksalad plant response rating [15]
0: Barnyardgrass plant response rating [1, 21] | Crabgrass, Large plant response rating [5, 21]
30: Cocklebur plant response rating [3, 20] | Corn plant response rating [4, 20] | Foxtail, Giant plant response rating [6, 20] | Morningglory plant response rating [7, 21] | Velvetleaf plant response rating [9, 20] | Blackgrass plant response rating [10, 21] | Blackgrass plant response rating [10, 20] | Wheat plant response rating [11, 20] | Oat, Wild plant response rating [12, 21]
90: Barnyardgrass plant response rating (0 to 100 scale) [1, 17] | Surinam Grass plant response rating (0 to 100 scale) [2, 17] | Plant response rating, Cocklebur [3, 18] | Rice plant response rating [13] | Barnyardgrass plant response rating [16]
50: Oat, Wild plant response rating [12, 20]
70: Corn plant response rating (0 to 100 scale) [4, 17] | Morningglory plant response rating [7, 20]
40: Morningglory plant response rating (0 to 100 scale) [7, 17] | Pigweed plant response rating [8, 20]

CCn1nc(C(C)(C)C)cc1C(=O)Nc1cc(C(=S)N(C)C)ccc1F [Compound 294]
50: Corn plant response rating [4, 20] | Foxtail, Giant plant response rating [6, 20] | Oat, Wild plant response rating [12, 20]
60: Barnyardgrass plant response rating [1, 20] | Blackgrass plant response rating [10, 20]
0: Morningglory plant response rating (0 to 100 scale) [7, 17]
10: Corn plant response rating [4, 21] | Crabgrass, Large plant response rating [5, 21] | Morningglory plant response rating [7, 21]
70: Pigweed plant response rating [8, 20]
80: Corn plant response rating (0 to 100 scale) [4, 17] | Velvetleaf plant response rating [9, 20] | Sedge, Umbrella plant response rating [14]
100: Barnyardgrass plant response rating (0 to 100 scale) [1, 17] | Plant response rating, Barnyardgrass [1, 18] | Surinam Grass plant response rating (0 to 100 scale) [2, 17] | Plant response rating, Surinam Grass [2, 18] | Plant response rating, Cocklebur [3, 18] | Plant response rating, Corn [4, 18] | Crabgrass, Large plant response rating (0 to 100 scale) [5, 17] | Plant response rating, Crabgrass, Large [5, 18] | Plant response rating, Foxtail, Giant [6, 18] | Pigweed plant response rating (0 to 100 scale) [8, 17] | Plant response rating, Pigweed [8, 18] | Plant response rating, Velvetleaf [9, 18]
20: Barnyardgrass plant response rating [1, 21] | Surinam Grass plant response rating [2, 21] | Crabgrass, Large plant response rating [5, 20] | Plant response rating, Morningglory [7, 18] | Morningglory plant response rating [7, 20] | Blackgrass plant response rating [10, 21]
40: Surinam Grass plant response rating [2, 20] | Velvetleaf plant response rating [9, 21] | Wheat plant response rating [11, 20] | Oat, Wild plant response rating [12, 21]
90: Cocklebur plant response rating (0 to 100 scale) [3, 17] | Foxtail, Giant plant response rating (0 to 100 scale) [6, 17] | Rice plant response rating [13] | Ducksalad plant response rating [15] | Barnyardgrass plant response rating [16]
30: Cocklebur plant response rating [3, 21] | Cocklebur plant response rating [3, 20] | Foxtail, Giant plant response rating [6, 21] | Pigweed plant response rating [8, 21] | Wheat plant response rating [11, 21]
